Where “and” joins values, the source holds several entries; their conditions need not be identical. Equal entries are not always repeated. Where two headings read alike, the source gives them in different places.
Assay: 14-day rat neurotoxicology study: toxicokinetics
Assay type: in vivo, Sprague-Dawley rats
Conditions: for AUC / concentration at 15 day / Cmax: Sprague-Dawley, rat, plasma; for concentration at 15 day: read-out: plasma level at the time of sacrifice
Method: An appropriate amount of methylcellulose (MC) was weighed and mixed with a small amount of warm water for injection. The mixture was then diluted with water for injection to make a 0.5% (w/v) MC solution. The vehicle was used for dosing in the control group. To make a 40 mg/mL suspension of COMPOUND A, an appropriate amount of the test article was weighed and mixed with the vehicle using a planetary centrifugal mixer and the mixture was then diluted with additional vehicle. The 40 mg/mL suspension was used to make 20 and 10 mg/mL suspensions by stepwise dilutions with the vehicle. The dosing suspensions were stored in a refrigerator (actual values: 3.7° C. to 6.1° C., acceptable range: 2° C. to 8° C.) under light-resistant conditions (tight container) and used within 8 days after preparation.
Males and females in good condition were selected for this study based on examinations within 4 days before the first dosing. Based on their body weights, animals were stratified and allocated randomly to 3 main study groups, each composed of 18 males and 18 females, and 2 satellite groups each composed of 9 males and 9 females for determination of plasma drug and metabolite concentrations. Surplus animals after animal selection were excluded from the study on the day after the animal selection or the day dosing commenced (Day 1).
Referring to Tables 4A and 4B, the plasma concentrations of COMPOUND A on Days 2, 7, and 14 were determined in each satellite group. Blood samples (approximately 0.25 mL) were drawn without anesthesia from the subclavian vein of 3 animals of each sex in the satellite groups at each sampling point using sodium-heparinized syringes. Sampling points were as follows: pre-dose and at 1, 2, 4, 8, and 24 hours post-dose. In addition, the plasma concentrations of COMPOUND A before scheduled necropsy were determined in each main study group. The plasma samples (≥0.08 mL) in polypropylene tubes were frozen and stored in a freezer (actual values: −87.0° C. to −83.5° C.) until shipment with parallel quality control (QC) samples prepared by test site 2 and stored under the same conditions as study plasma samples in the test facility. The samples, including the parallel QC samples, were packed with dry ice and shipped to test site 2. The samples were stored frozen at −85.8° C. to −75.5° C. until assay. The plasma concentrations of COMPOUND A and its metabolites, were determined by liquid chromatography/tandem mass spectrometry (LC/MS/MS) and the TK parameters (tmax, Cmax, and AUC24 value) on Days 2, 7, and 14 were calculated for the satellite groups at test site 2.

CC1=CN2CCS(=O)(=O)N=C2C(c2ccc(OC3CCCCC3)cc2)=N1 [COMPOUND A, 9-[4-(Cyclohexyloxy)phenyl]-7-methyl-3,4-dihydropyrazino[2,1-c][1,2,4]thiadiazine 2,2-dioxide]
plasma level at the time of sacrifice (Day 15, females at 200 mg/kg/day not observed to convulse, no brain histopathology, individual animals, 200 mg/kg/day): 192 ng/mL and 968 ng/mL and 114 ng/mL | plasma level at the time of sacrifice (Day 15, females at 200 mg/kg/day with lesions visible with Fluoro-Jade only, individual animals, 200 mg/kg/day): 138 ng/mL | AUC (both sexes, oral, 100 mg/kg/day, NOAEL 100 mg/kg/day, read-out: NOAEL exposure cap (AUC) from the 14-day neurotoxicity study in rats): 17400 ng·h/mL | concentration at 15 day (female, oral, 200 mg/kg/day, Day 15, female at 200 mg/kg/day with lesions visible with both HE and Fluoro-Jade, individual animal): 935 ng/mL | concentration at 15 day (female, oral, 200 mg/kg/day, Day 15, females at 200 mg/kg/day with lesions visible with Fluoro-Jade only, individual animals): 182 ng/mL | Cmax (female, po, 100 mg/kg/day, 100 mg/kg/day oral, female, Day 2): 1640 ng/mL | AUC (female, po, 100 mg/kg/day, 100 mg/kg/day oral, female, Day 2, read-out: AUC24): 20500 ng·h/mL | Cmax (female, po, 100 mg/kg/day, 100 mg/kg/day oral, female, Day 7): 1270 ng/mL | AUC (female, po, 100 mg/kg/day, 100 mg/kg/day oral, female, Day 7, read-out: AUC24): 14900 ng·h/mL | Cmax (female, po, 100 mg/kg/day, 100 mg/kg/day oral, female, Day 14): 1670 ng/mL | AUC (female, po, 100 mg/kg/day, 100 mg/kg/day oral, female, Day 14, read-out: AUC24): 17800 ng·h/mL | Cmax (female, po, 200 mg/kg/day, 200 mg/kg/day oral, female, Day 2): 1630 ng/mL | AUC (female, po, 200 mg/kg/day, 200 mg/kg/day oral, female, Day 2, read-out: AUC24): 18000 ng·h/mL | Cmax (female, po, 200 mg/kg/day, 200 mg/kg/day oral, female, Day 7): 2340 ng/mL | AUC (female, po, 200 mg/kg/day, 200 mg/kg/day oral, female, Day 7, read-out: AUC24): 31800 ng·h/mL | Cmax (female, po, 200 mg/kg/day, 200 mg/kg/day oral, female, Day 14): 2210 ng/mL | AUC (female, po, 200 mg/kg/day, 200 mg/kg/day oral, female, Day 14, read-out: AUC24): 27600 ng·h/mL | Cmax (male, po, 50 mg/kg/day, 50 mg/kg/day oral, male, Day 2): 836 ng/mL | AUC (male, po, 50 mg/kg/day, 50 mg/kg/day oral, male, Day 2, read-out: AUC24): 9480 ng·h/mL | Cmax (male, po, 50 mg/kg/day, 50 mg/kg/day oral, male, Day 7): 841 ng/mL | AUC (male, po, 50 mg/kg/day, 50 mg/kg/day oral, male, Day 7, read-out: AUC24): 10700 ng·h/mL | Cmax (male, po, 50 mg/kg/day, 50 mg/kg/day oral, male, Day 14): 728 ng/mL | AUC (male, po, 50 mg/kg/day, 50 mg/kg/day oral, male, Day 14, read-out: AUC24): 8750 ng·h/mL | Cmax (male, po, 100 mg/kg/day, 100 mg/kg/day oral, male, Day 2): 1200 ng/mL | AUC (male, po, 100 mg/kg/day, 100 mg/kg/day oral, male, Day 2, read-out: AUC24): 15000 ng·h/mL | Cmax (male, po, 100 mg/kg/day, 100 mg/kg/day oral, male, Day 7): 917 ng/mL | AUC (male, po, 100 mg/kg/day, 100 mg/kg/day oral, male, Day 7, read-out: AUC24): 13000 ng·h/mL | Cmax (male, po, 100 mg/kg/day, 100 mg/kg/day oral, male, Day 14): 1290 ng/mL | AUC (male, po, 100 mg/kg/day, 100 mg/kg/day oral, male, Day 14, read-out: AUC24): 17000 ng·h/mL
